PMC6283646, “Identification and binding mode of a novel Leishmania Trypanothione reductase inhibitor from high throughput screening” (PLoS Neglected Tropical Diseases, 2018)
Where two headings read alike, the source gives them in different places. One block for each compound: values may come before it.

Key:
L. infantum TR [1] = target: T1, L. infantum TR (Leishmania infantum, UniProt A4HSF7); test: Luminescence-based (NADPH-Glo) TR enzymatic assay; type: biochemical
T1 construct: made in house
From the text: (§1) L. infantum TR was cloned and purified as previously described.[9, 28] Bovine serum albumin (BSA), NADPH, auranofin, hGR, oxidized glutathione (GSSG) and DTNB were purchased from Sigma-Aldrich (St. Louis, MO); oxidized trypanothione (TS2) was purchased from Bachem (Bubendorf, Switzerland); the NADPH-Glo kit was purchased from Promega (Madison, WI, U.S.A.). Compounds, dissolved in DMSO, were transferred to 384-well white plates (Greiner Bio One, Frickenhausen, Germany) using the acoustic droplet ejection technology (ATS-100, EDC Biosystems, U.S.A.) to reach the desired final concentration. The TR enzymatic reaction was performed by addition of 0.1 nM TR, 12.5 μM NAPDH, 15 μM TS2 in 50 mM HEPES (pH 7.4), 40 mM NaCl, 0.01% BSA in a final volume of 15 μL. After 60 min of incubation at room temperature, an equal volume of NADPH-Glo reagent was added and the luminescent signal was acquired by an EnVision plate reader (PerkinElmer, Waltham, MA, U.S.A.). […] In addition, in order to make sure that the production of a reducing agent (i.e. T(SH)2) by the TR activity was not going to interfere with the assay, and in absence of T(SH)2 as purified reagent, the effect of DTT and GSH was tested on the NADPH-Glo reaction resulting in no interference at concentrations relevant for the current setup (S2 Fig). The hGR assay was performed by addition of 0.5 nM hGR, 10 μM GSSG, 20 μM NADPH in 50 mM HEPES (pH 7.4), 40 mM NaCl, 0.01% BSA in a final volume of 15 μL. After 30 min incubation at room temperature 15 μl of NADPH-Glo kit was added to reveal the signal. The 5,5′-dithiobis(2-nitrobenzoic acid) (DTNB) assay was performed using 2 nM TR, 100 μM NADPH, 4 μM TS2 and 200 μM DTNB in 40 mM HEPES (pH 7.4), 1 mM EDTA, 0.01% BSA and 0.05% tween-20 in a final volume of 50 μl. The absorbance signal (412 nm) was acquired 15 minutes post incubation at room temperature using the plate reader (Safire2, Tecan, Switzerland). Results were analyzed using Prism software (GraphPad, San Diego, CA, U.S.A.) and Vortex (Dotmatics, Bioshops Stortford, UK). Dose-response curves were fitted by four-parameter logistic regression.

L. infantum TR [2] = target: T1, L. infantum TR; test: DTNB absorbance-based TR assay; type: biochemical
From the text: as §1, with “The 5,5′-dithiobis(2-nitrobenzoic acid) (DTNB) assay was performed using 2 nM TR, 100 μM NADPH, 4 μM TS2 and 200 μM DTNB in 40 mM HEPES (pH 7.4), 1 mM EDTA, 0.01% BSA and 0.05% tween-20 in a final volume of 50 μl.” left out

TR [3] = target: T2, TR (Leishmania infantum, UniProt A4HSF7); design: method as in PMID 26033467; conditions: read-out: TS2 Km; cited from earlier work
T2 construct: made in house
T2 sequence (A4HSF7 1-491): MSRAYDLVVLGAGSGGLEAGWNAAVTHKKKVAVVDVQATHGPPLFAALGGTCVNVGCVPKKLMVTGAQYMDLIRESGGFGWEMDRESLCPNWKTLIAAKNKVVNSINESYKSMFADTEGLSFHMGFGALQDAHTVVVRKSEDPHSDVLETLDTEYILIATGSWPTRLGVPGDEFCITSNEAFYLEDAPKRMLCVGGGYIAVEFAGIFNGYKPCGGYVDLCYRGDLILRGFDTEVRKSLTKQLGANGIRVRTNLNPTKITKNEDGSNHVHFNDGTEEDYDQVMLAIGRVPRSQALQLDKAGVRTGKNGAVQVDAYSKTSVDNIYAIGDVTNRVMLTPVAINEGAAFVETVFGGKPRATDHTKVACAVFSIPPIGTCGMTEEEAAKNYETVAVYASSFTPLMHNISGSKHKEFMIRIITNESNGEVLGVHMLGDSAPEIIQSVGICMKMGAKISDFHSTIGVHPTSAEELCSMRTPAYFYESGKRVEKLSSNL

[4] = tested on: L. infantum promastigotes; test: Inhibition of promastigote growth (MTT); type: cell-based; conditions: for IC50: Leishmania infantum, 72 h, MTT
Experimental: Promastigote (the extracellular stage of the Leishmania life cycle) growth inhibition was evaluated using L. infantum strain (MHOM/TN/80/IPT1). […] Promastigotes were grown in Schneider’s Drosophila medium (SIGMA) containing 10% Fetal Calf Serum (FCS) (GIBCO-BRL) and 2% gentamicin (50 mg/L) (Sigma) at 22°C. Parasites were adjusted to 1 × 10^6 parasites/mL, and 200 μL of suspension was seeded in triplicate in 96-well flat bottom microplates and incubated with varying concentrations of compound. […] Each experiment was done in triplicate for each drug concentration and two independent experiments were performed. After 72 h of incubation, 30 μL of MTT was added to each well and plates were further incubated for 2 h. The absorbance at 550 nm was measured with a 96-well scanner (DINEX Technologies, VA, USA). Anti-leishmanial activity per experimental point was expressed as mean percentage of inhibition with respect to vehicle treated parasites (0%). In addition, the promastigote vitality was followed by microscopic observation after 72 h. Data were analyzed and plotted by Prism (GraphPad, San Diego, USA).

[5] = target: T3, human glutathione reductase (hGR) (Homo sapiens, UniProt P00390); test: hGR assay (NADPH-Glo); type: biochemical; conditions: for IC50: n=3
T3 construct: purchased Sigma-Aldrich
T3 sequence (P00390 44-522): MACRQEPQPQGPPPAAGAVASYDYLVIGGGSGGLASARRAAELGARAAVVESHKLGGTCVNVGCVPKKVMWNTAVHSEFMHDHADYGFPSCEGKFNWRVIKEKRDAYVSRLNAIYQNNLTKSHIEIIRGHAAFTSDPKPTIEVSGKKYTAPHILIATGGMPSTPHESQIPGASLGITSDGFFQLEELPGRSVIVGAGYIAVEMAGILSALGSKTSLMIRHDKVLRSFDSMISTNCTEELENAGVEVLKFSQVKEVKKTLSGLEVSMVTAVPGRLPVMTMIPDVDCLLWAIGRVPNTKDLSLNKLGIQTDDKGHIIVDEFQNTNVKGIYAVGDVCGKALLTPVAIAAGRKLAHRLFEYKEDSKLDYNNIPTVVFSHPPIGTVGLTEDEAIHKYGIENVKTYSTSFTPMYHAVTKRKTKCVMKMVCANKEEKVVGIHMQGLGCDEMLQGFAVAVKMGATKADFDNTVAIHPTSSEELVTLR
From the text: as §1

TR [6] = target: T2, TR; test: Binding assay by SPR
Experimental: Surface plasmon resonance (SPR) interaction analysis was performed using a Biacore T200 (GE Healthcare, Uppsala, Sweden). TR was immobilized on a CM4 chip by amine coupling according to manufacturer’s instructions (Amine Coupling Kit, GE Healthcare, Uppsala, Sweden). Briefly, the surface of the sensor chip was activated for 7 min using a mixture of 0.1 M N-hydroxy succinimide (NHS) and 0.4 M N-ethyl-N’-[3-dimethyl-aminopropyl] carbodiimide (EDC) then 25 μg/mL of TR in 10 mM sodium acetate (pH 5.0) was injected for 360 s at 10 μl/min, finally residual activated groups on the surface were blocked by a 7-min injection of 1 M ethanolamine (pH 8.5). A reference channel for background subtraction was prepared by activation with EDC/NHS mixture (0.1 M/0.4 M as per ligand immobilization), followed by blocking with 1 M ethanolamine. The binding of the selected hit to the immobilized ligand was evaluated by a multi-cycle kinetic procedure in 50 mM HEPES pH 7.4, 40 mM NaCl, 0.05% Tween-20 supplemented with 2% DMSO (Sigma Aldrich). The analyte was injected for 20 s at 30 μl/min until equilibrium and dissociation monitored for 120 s. A standard curve of DMSO was included for solvent correction. Biomolecular binding events were reported as changes of resonance units (RUs) over time. The data were analysed by the Biacore T200 evaluation software: specific sensorgrams were obtained for the analyte, by subtracting the signals of the reference channel to those of the TR-immobilized one, and corrected for DMSO interference from DMSO standard curve. The binding affinity was evaluated at steady state whereas the kinetic parameters were calculated by a one-phase association and two-phase dissociation model using the Prism software (GraphPad, San Diego, CA, U.S.A.)

TR [7] = target: T2, TR; test: Competition assay with TS2 or NADPH; type: biochemical; conditions: 4, 16, 64 μM compound
Experimental: Competition assays were performed using three test concentrations (4, 16 and 64 μM) for the competing compounds. The reaction buffer and components were mostly identical to those used in the TR assay described above, but 1 nM TR was employed for 5 minutes against a serial dilution of either TS2 in presence of 40 μM NADPH or NADPH in presence of 30 μM TS2. The residual amount of NADPH was measured using the NADPH-Glo kit (Promega, U.S.A.) after 30 min incubation at room temperature as per the manufacturer’s protocol. The luminescent signal was measured using the EnVision plate reader (PerkinElmer, USA). IC50, Vmax, and Km values were calculated using Prism software (GraphPad, San Diego, CA, U.S.A.).
The NADPH concentration for the TS2 dilutions was 40 μM while the TS2 concentration for the NADPH dilutions was 30 μM.

[8] = Solubility in assay buffer; type: physicochemical; conditions: aqueous buffer
[9] = Fig 5, read-out: IC50 (TR inhibition potency)

T1 sequence (A4HSF7 entry or part of it): as the sequence (A4HSF7 1-491) above

SMILES: N[C@@H](CCC(=O)N[C@@H](CS)C(=O)NCC(=O)NCCCCNCCCNC(=O)CNC(=O)[C@H](CS)NC(=O)CC[C@H](N)C(=O)O)C(=O)O [TS2, N1,N8-bis(glutathionyl)spermidine]
- Km (L. infantum TR [1]; luminescent assay, 0.5 nM TR, 12.5 μM NADPH, read-out: TS2 Km (apparent)): 13.5 ± 3.8 µM
- Km (L. infantum TR [2]; DTNB assay, 20 nM TR, 100 μM NADPH, read-out: TS2 Km (apparent)): 3.6 ± 0.5 µM
- Km (TR [3]): 23 ± 1 µM

SMILES: O=C(N/N=C/c1ccc([N+](=O)[O-])s1)C1CC12CCC2 (stereo not drawn) [Compound 1]
- IC50 (L. infantum TR [1]; [9]): 1.76 ± 0.371 µM

- IC50 [4]: 0.5 µM
SMILES: C[C@@H]1[C@H](O)[C@@H](C)/C=C/C=C/C=C/C=C/C=C/C=C/C=C/[C@H](O[C@@H]2O[C@H](C)[C@@H](O)[C@H](N)[C@@H]2O)C[C@@H]2O[C@](O)(C[C@@H](O)C[C@@H](O)[C@H](O)CC[C@@H](O)C[C@@H](O)CC(=O)O[C@H]1C)C[C@H](O)[C@H]2C(=O)O [Amphotericin B, reference compound]

SMILES: CC(=O)OC[C@H]1O[C@@H]([S-])[C@H](OC(C)=O)[C@@H](OC(C)=O)[C@@H]1OC(C)=O.CCP(CC)CC.[Au+] [Auranofin, reference compound]
- IC50 (L. infantum TR [1]; dose-response, Fig 3D, read-out: potency, luminescent assay): 6.6 ± 1.05 µM
- IC50 (L. infantum TR [2]; dose-response, Fig 3D, read-out: potency, DTNB assay): 0.154 ± 0.0107 µM

SMILES: CCN(CC)CCOC(=O)c1ccc(NCCC(=O)c2ccc([N+](=O)[O-])cc2)cc1 [Compound 3, 2-(Diethylamino)ethyl 4-((3-(4-nitrophenyl)-3-oxopropyl)amino)benzoate]
- IC50 (L. infantum TR [1]; [9]): 7.51 ± 2.53 µM
- IC50 (L. infantum TR [1]; n=3, read-out: TR assay IC50): 7.52 ± 2.53 µM
- IC50 (L. infantum TR [1]; read-out: Luminescence assay IC50 (in vitro potency, TR)): 7.5 ± 2.5 µM
- IC50 (L. infantum TR [2]; read-out: DTNB IC50): 4 ± 0.9 µM
- selectivity for TR with respect to hGR [5]: selective
- IC50 [5]: > 85 µM
- Kd (TR [6]; Kd from kslow/kon ratio, kslow/kon): 22.7 µM
- kon (TR [6]; one-phase association model): 3510 ± 1.09e+06 M⁻¹ s⁻¹
- Kd (TR [6]; steady state, read-out: steady state calculated Kd): 28.3 ± 5.12 µM
- kfast (TR [6]; two-phase dissociation model): 5.88 ± 0.96 s⁻¹
- kslow (TR [6]; two-phase dissociation model): 0.08 ± 0.02 s⁻¹
- competition with NADPH (TR [7]; 30 μM TS2): competitive for NADPH
- effect on TS2 Km (TR [7]; 40 μM NADPH): did not alter TS2 Km
- promastigote mortality ([4]; 72 h after treatment, up to 100 μM): 100%
- IC50 [4]: 12.4 ± 1.09 µM
- solubility [8]: > 100 µM

SMILES: CN(C)C(=O)c1ccc(NCCC(=O)c2cc3ccccc3o2)cc1 [Compound 2]
- IC50 (L. infantum TR [1]; [9]): 13.3 ± 2.69 µM
- IC50 (L. infantum TR [1]; n=3, read-out: TR assay IC50): 13.3 ± 2.69 µM
- selectivity for TR with respect to hGR [5]: not selective
- IC50 [5]: 13.9 ± 3.5 µM
